The results in this text go back to patent EP4574818A1, “ONIUM SALT OF NITROGEN-CONTAINING HETEROARYL COMPOUND AND PEST CONTROL AGENT” (priority 2022, dated 2024).

Where two headings read alike, the source gives them in different places. Some results are limits rather than exact numbers.

Holding throughout (type): in vivo
The test system of series [1] is Haemophysalis longicornis. The series can be described thus: Efficacy test against Haemophysalis longicornis (thin film in glass test tube). To be noted: 100 µL of 16 ppm by mass isopropanol solution dried as thin film in glass test tube; nymphs; 25°C; after four days; 5760 min. As for the experimental part: The compound of the present invention was dissolved in isopropanol to prepare a drug solution having a concentration of 16 ppm by mass. 100 µL of the drug solution was coated on the inner surface of the bottom of a glass test tube (φ 12 mm), and then isopropanol was vaporized by air-drying to form a thin film of the compound of the present invention. In the test tube, four nymphs of Haemophysalis longicornis were left. The lid was put on the test tube, and the test tube was placed in a thermostatic chamber at 25°C. After four days had passed from leaving the nymphs, life or death of Haemophysalis longicornis was assessed and the mortality was calculated.

In a further series the test system is Plutella xylostella. Kind of series: Efficacy test against Plutella xylostella (cabbage leaf immersion). To be noted: 72 h. On the procedure: The emulsion (II) was diluted with water at the same dilution ratio as the diluted solution (I), thereby obtaining a diluted solution (II). A cabbage leaf was immersed in each of the diluted solutions for 30 seconds. Each cabbage leaf after immersion was air-dried and then put in a petri dish, followed by leaving five second-instar larvae of Plutella xylostella therein. The petri dishes were placed in a thermostatic chamber at a temperature of 25°C and a humidity of 60%. After three days had passed from leaving the larvae, life or death was assessed and the mortality was calculated. The test was repeated twice.

A further series concerns Phyllotreta striolata. Kind of series: Efficacy test against Phyllotreta striolata (sprayed bok-choy seedling). To be noted: 168 h, read-out: mortality against the adults of Phyllotreta striolata. On the procedure: (§1) 5 parts by mass of a compound of the present invention, 93.6 parts by mass of dimethylformamide, and 1.4 parts by mass of polyoxyethylene alkyl aryl ether were mixed and dissolved to obtain an emulsion (I) containing 5% by mass of the active ingredient.
The emulsion (I) was diluted with water such that the concentration of the compound of the present invention became 125 ppm by mass. The diluted solution was sprayed to a bok-choy seedling (at the 7th leafe stage) planted in a 3-sun pot. After air-dried, the bok-choy seedling was placed in a plastic cup, and ten adults of Phyllotreta striolata were left therein. The plastic cup was placed in a thermostatic chamber at a temperature of 25°C and a humidity of 65%. After seven days had passed from leaving the adults, life or death was assessed and the mortality was calculated. The test was repeated twice.

The test system of the next series is Spodoptera litura. Kind of series: Efficacy test against Spodoptera litura (cabbage leaf immersion). To be noted: 144 h, read-out: mortality of Spodoptera litura. As for the experimental part:
A cabbage leaf was immersed in the diluted solution for 30 seconds. The cabbage leaf was air-dried and then put in a petri dish, followed by leaving five second-instar larvae of Spodoptera litura therein. The petri dish was placed in a thermostatic chamber at a temperature of 25°C and a humidity of 60%. After six days had passed from leaving the larvae, life or death was assessed and the mortality was calculated. The test was repeated twice.

Another series relates to Mythimna separata. The series can be described thus: Efficacy test against Mythimna separata (treated artificial feed). To be noted: 1 µl of emulsion (I) (5% by mass active ingredient) mixed with 0.8 g artificial feed; second-instar larvae; 25°C; after five days. As for the experimental part:
as §1
0.8 g of commercially-available artificial feed (Insect LFS, manufactured by Nosan Corporation) and 1 µl of the emulsion (I) were mixed well, and then 0.2 g of the mixture per treated area was packed into plastic test containers (each having a capacity of 1.4 ml) as test feeds.
Two second-instar larvae of Mythimna separata were left per treated area, and then the test containers were sealed with plastic covers. The test containers were placed in a thermostatic chamber at 25°C, and, after five days had passed therefrom, the mortality and the feed intake were measured. The test was repeated twice.
In addition, the test was carried out under the same conditions as described above, except that the emulsion (II) was used instead of the emulsion (I), and evaluated as a solvent control area.

Another series has as its system Ctenocephalides felis. The series can be described thus: Efficacy test against Ctenocephalides felis (thin film in glass vial). To be noted: 96 h, 100 µL of 16 ppm by mass isopropanol solution dried as thin film in glass vial, adults, 25°C, after four days. As for the experimental part: The compound of the present invention was dissolved in isopropanol to prepare a drug solution having a concentration of 16 ppm by mass. 100 µL of the drug solution was coated on the inner surface of the bottom of a glass vial container (φ […]), and then isopropanol was vaporized by air-drying to form a thin film of the compound of the present invention. In the vial container, four adults (a mixture of males and females) of cat flea (Ctenocephalides felis) were left. The lid was put on the vial container, and the vial container was placed in a thermostatic chamber at 25°C. After four days had passed from leaving the adults, life or death of Ctenocephalides felis was assessed and the mortality was calculated.

Where [2] appears, read: 125 ppm by mass, cabbage leaf immersed 30 seconds, second-instar larvae of Plutella xylostella, 25°C, humidity 60%, after three days, read-out: mortality.
The mark [3] stands for this setting: 125 ppm by mass, sprayed to bok-choy seedling, adults, 25°C, humidity 65%, after seven days.
The mark [4] stands for this setting: 125 ppm by mass, cabbage leaf immersed 30 seconds, second-instar larvae, 25°C, humidity 60%, after six days.

On to `O=C([N-][n+]1ccccc1)c1cc(Cl)nc(Oc2ccc(OC(F)(F)F)cc2)c1` [Compound 175, (2-chloro-6-(4-(trifluoromethoxy)phenoxy)isonicotinoyl)(pyridin-1-ium-1-yl)amide], for which the “mortality against Haemophysalis longicornis” value in series [1] is at least 80%. The mortality at 125 ppm in the series on Plutella xylostella (setting [2]), in the series on Phyllotreta striolata (setting [3]) and in the series with Spodoptera litura (setting [4]) was at least 80% in each case. Moreover, in the series with Mythimna separata, the “mortality of Mythimna separata or feed intake relative to the feed intake at the solvent control area” value is 100% mortality of Mythimna separata or 10% or less of the feed intake. The compound further showed a mortality at 16 ppm with Ctenocephalides felis of at least 80%.
Regarding `O=C([N-][n+]1ccccc1)c1cc(Cl)nc(Oc2ccc(OC(F)(F)C(F)(F)F)cc2)c1` [Compound 3], the mortality at 125 ppm in the series with Plutella xylostella (setting [2]), in the series on Phyllotreta striolata (setting [3]) and in the series on Spodoptera litura (setting [4]) was at least 80% in each case. The “mortality of Mythimna separata or feed intake relative to the feed intake at the solvent control area” value in the series on Mythimna separata is 100% mortality of Mythimna separata or 10% or less of the feed intake.
In the case of `O=C([N-][n+]1cccc(F)c1)c1cc(Cl)nc(Oc2ccc(OC(F)(F)C(F)(F)F)cc2)c1` [Compound 7], the mortality at 125 ppm with Plutella xylostella (setting [2]) and in the series with Spodoptera litura (setting [4]) was at least 80% throughout. The mortality at 16 ppm in the series on Ctenocephalides felis is at least 80%.
Take `CCn1c[n+]([N-]C(=O)c2cc(Cl)nc(Oc3ccc(OC(F)(F)C(F)(F)F)cc3)c2)cn1` [Compound 10]: the mortality at 125 ppm with Plutella xylostella (setting [2]), with Phyllotreta striolata (setting [3]) and with Spodoptera litura (setting [4]) was at least 80% in each case. Moreover, the mortality at 16 ppm in the series with Ctenocephalides felis was at least 80%.
Regarding `O=C([N-][n+]1cccc(F)c1)c1cc(Cl)nc(Oc2ccc(OC(F)(F)F)cc2)c1` [Compound 1], the mortality at 125 ppm with Plutella xylostella (setting [2]), with Phyllotreta striolata (setting [3]) and in the series with Spodoptera litura (setting [4]) was at least 80% each time. The “mortality of Mythimna separata or feed intake relative to the feed intake at the solvent control area” value with Mythimna separata is recorded as 100% mortality of Mythimna separata or 10% or less of the feed intake. For the same compound, in the series with Ctenocephalides felis, the mortality at 16 ppm was at least 80%.
For the compound `O=C([N-][n+]1ccccc1)c1cc(I)nc(Oc2ccc(OC(F)(F)C(F)(F)F)cc2)c1` [Compound 219, (2-iodo-6-(4-(perfluoroethoxy)phenoxy)isonicotinoyl)(pyridin-1-ium-1-yl)amide], the mortality at 125 ppm with Plutella xylostella (setting [2]), with Phyllotreta striolata (setting [3]) and in the series on Spodoptera litura (setting [4]) was at least 80% in each case.
As to `O=C([N-][n+]1ccccc1)c1cc(Cl)nc(Oc2ccc(OC(F)(F)C(F)OC(F)(F)C(F)(F)C(F)(F)F)cc2)c1` (stereo not drawn) [Compound 20], the mortality at 125 ppm in the series with Plutella xylostella (Plutella xylostella), in the series with Phyllotreta striolata and in the series on Spodoptera litura was at least 80% throughout.
As for `O=C([N-][n+]1ccccc1)c1cc(Cl)nc(Oc2ccc(SC(F)(F)F)cc2)c1` [Compound 25, (2-chloro-6-(4-((trifluoromethyl)thio)phenoxy)isonicotinoyl) (pyridin-1-ium-1-yl)amide], the mortality at 125 ppm with Plutella xylostella (setting [2]), with Phyllotreta striolata (setting [3]) and in the series with Spodoptera litura (setting [4]) was at least 80% each time.
Consider `CCn1c[n+]([N-]C(=O)c2cc(Cl)nc(Oc3ccc(OC(F)(F)C(F)OC(F)(F)C(F)(F)C(F)(F)OC(F)(F)F)cc3)c2)cn1` (stereo not drawn) [Compound 23], for which the mortality at 125 ppm with Plutella xylostella (Plutella xylostella), in the series with Phyllotreta striolata and with Spodoptera litura was at least 80% in each case.
As for `CC(C)n1c[n+]([N-]C(=O)c2cc(Cl)nc(Oc3ccc(OC(F)(F)C(F)(F)F)cc3)c2)cn1` [Compound 19], the mortality at 125 ppm in the series with Plutella xylostella (setting [2]), in the series with Phyllotreta striolata (setting [3]) and with Spodoptera litura (setting [4]) was at least 80% each time.
Regarding `O=C([N-][n+]1ccccc1)c1cc(Cl)nc(Oc2ccc(C3CC3(Cl)Cl)cc2)c1` (stereo not drawn) [Compound 211], the mortality at 125 ppm in the series with Phyllotreta striolata (setting [3]) is at least 80%. The “mortality of Mythimna separata or feed intake relative to the feed intake at the solvent control area” value in the series with Mythimna separata was 100% mortality of Mythimna separata or 10% or less of the feed intake.
